In the NIST ThermoML archive (doi:10.1021/acs.jced.8b00326):
Numbers after ± are expanded uncertainties.

Experiment: mn = molality of the nth substance listed, in mol/kg
Conditions: 100 kPa, Liquid, Alternating current cell with electrodes

O [water] + CCCCCCCCCCCCCCCC[n+]1ccccc1.[Cl-]
m2 = 0
Conditions | electrical conductivity [S/m]
293.15 K | 0.0005
298.15 K | 0.00053
303.15 K | 0.00057
308.15 K | 0.00058

CCCCCCCCCCCCCCCC[n+]1ccccc1.[Cl-] [cetylpyridinium chloride] + O
electrical conductivity [S/m]
Conditions | m1 = 0.0002 | m1 = 0.0004 | m1 = 0.0006 | m1 = 0.0008 | m1 = 0.001 | m1 = 0.0012 | m1 = 0.0014 | m1 = 0.0016 | m1 = 0.0018 | m1 = 0.002
293.15 K | 0.00277 ± 0.0012 | 0.00503 ± 0.0012 | 0.0073 ± 0.0012 | 0.00906 ± 0.0011 | 0.0102 ± 0.001 | 0.0112 ± 0.001 | 0.012 ± 0.001 | 0.0128 ± 0.001 | 0.0138 ± 0.001 | 0.0145 ± 0.001
298.15 K | 0.00283 ± 0.0013 | 0.00513 ± 0.0013 | 0.00755 ± 0.0013 | 0.00982 ± 0.0011 | 0.0109 ± 0.001 | 0.0118 ± 0.001 | 0.0128 ± 0.001 | 0.0139 ± 0.001 | 0.0149 ± 0.001 | 0.0158 ± 0.0011
303.15 K | 0.00302 ± 0.0013 | 0.00574 ± 0.0013 | 0.00831 ± 0.0013 | 0.011 ± 0.0013 | 0.0134 ± 0.0012 | 0.0148 ± 0.0011 | 0.016 ± 0.0011 | 0.0172 ± 0.0011 | 0.0184 ± 0.0011 | 0.0194 ± 0.001
308.15 K | 0.00337 ± 0.0014 | 0.00645 ± 0.0014 | 0.00954 ± 0.0014 | 0.0126 ± 0.0014 | 0.0155 ± 0.0012 | 0.017 ± 0.0011 | 0.0183 ± 0.0011 | 0.0196 ± 0.0011 | 0.021 ± 0.0011 | 0.0223 ± 0.0011
